Measurements reported in paper PMC11111852, “Exploration of the role of the penicillin binding protein 2c (Pbp2c) in inducible β-lactam resistance in Corynebacteriaceae” (Frontiers in Microbiology, 2024).

What was measured:
Pbp2c = target: T1, Pbp2c (Corynebacterium jeikeium, UniProt Q4JX88); test: electrospray mass spectrometry of covalent adduct; type: binding; settings: 20 uM protein, 200 uM drug, 1 h, 20 °C, 100 mM MES pH 6.4
T1 construct: residues 32-593 without N-terminal transmembrane segment; E. coli BL21(DE3); 62,975 Da; monomer
T1 sequence (Q4JX88 entry or part of it): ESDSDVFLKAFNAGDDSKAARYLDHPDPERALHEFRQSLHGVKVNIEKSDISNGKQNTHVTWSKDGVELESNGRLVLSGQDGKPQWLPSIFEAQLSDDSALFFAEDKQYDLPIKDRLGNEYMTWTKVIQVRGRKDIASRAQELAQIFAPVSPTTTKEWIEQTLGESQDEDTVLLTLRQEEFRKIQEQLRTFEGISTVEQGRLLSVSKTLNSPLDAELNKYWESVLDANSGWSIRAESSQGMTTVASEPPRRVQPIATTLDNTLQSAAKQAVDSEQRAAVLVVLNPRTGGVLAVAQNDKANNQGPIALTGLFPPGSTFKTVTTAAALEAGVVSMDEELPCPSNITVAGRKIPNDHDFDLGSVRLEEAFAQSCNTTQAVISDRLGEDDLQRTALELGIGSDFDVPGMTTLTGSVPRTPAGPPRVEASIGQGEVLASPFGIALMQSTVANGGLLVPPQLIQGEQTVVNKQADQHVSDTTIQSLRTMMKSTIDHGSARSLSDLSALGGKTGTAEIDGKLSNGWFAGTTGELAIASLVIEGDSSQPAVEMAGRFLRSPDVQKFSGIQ

BlaCor = target: T2, BlaCor (Corynebacterium jeikeium, UniProt Q4JX89); test: electrospray mass spectrometry of covalent adduct; type: binding; settings: not hydrolysed
T2 construct: gene jk0411; 276-residue protein with N-terminal His6-TEV tag (pET-TEV), E. coli BL21(DE3), observed mass 32,825 Da, monomer
T2 sequence (Q4JX89 entry or part of it): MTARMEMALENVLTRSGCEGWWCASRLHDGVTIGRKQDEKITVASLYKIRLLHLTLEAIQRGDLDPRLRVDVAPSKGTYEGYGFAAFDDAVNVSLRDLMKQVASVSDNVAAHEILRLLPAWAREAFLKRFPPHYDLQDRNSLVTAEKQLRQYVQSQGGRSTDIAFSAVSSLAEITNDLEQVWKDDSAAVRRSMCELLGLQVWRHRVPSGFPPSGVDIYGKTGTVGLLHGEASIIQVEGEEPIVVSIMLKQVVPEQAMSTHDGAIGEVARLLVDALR

SMILES	electrospray mass spectrometry of covalent adduct (Pbp2c)	electrospray mass spectrometry of covalent adduct (BlaCor)
C[C@@H](O)[C@H]1C(=O)N2C(C(=O)O)=C(SCCN=CN)C[C@H]12 [imipenem]	Incubation of Pbp2c with imipenem allowed the detection of adducts	–
C[C@@H](O)[C@H]1C(=O)N2C(C(=O)O)=C(S[C@@H]3CN[C@H](C(=O)N(C)C)C3)[C@H](C)[C@H]12 [meropenem]	Adducts matching increments of the average mass of meropenem were also detected	–
O=C(Cc1cccs1)N[C@@H]1C(=O)N2C(C(=O)O)=C(/C=C/c3ccc([N+](=O)[O-])cc3[N+](=O)[O-])CS[C@H]12 [nitrocefin]	–	the nitrocefin-BlaCor adduct was detected by mass spectrometry (data not shown)
